The nature of the data set: physchem. The format is physicochemical. The following applies: organic solvent or mixture.

SMILES strings stand for the structures. In brackets after ≈: the same amount, converted by molar mass.

Consider `CC1(C)CC=C(c2nc(C3CC(C)(C)OC(C)(C)C3)ccc2NC(=O)c2nc(C#N)c[nH]2)CC1` [Compound A, 4-cyano-N-[2-(4,4-dimethylcyclohex-1-en-1-yl)-6-(2,2,6,6-tetramethyltetrahydro-2H-pyran-4-yl)pyridin-3-yl]-1H-imidazole-2-carboxamide], for which the solubility (commonly how much of the substance goes into solution per volume) is approximately 130 mg/mL (≈ 282 mM).

The values above are taken from patent US10858348B2, “Salt forms of 4-cyano-N-(4,4-dimethylcyclohex-1-en-1-yl)-6-(2,2,6,6-Tetr amethyltetrahydro-2H-pyran-4-yl)pyridin-3-yl)-1H-imidazole-2-carboximide” (Janssen Pharmaceutica NV, priority 2016, dated 2020).
